Measurements as given in US10174067B2, “Type of cytidine derivative and application thereof” (priority 2014, dated 2019).
Marks after values point to notes of the source that are not given here.

Key:
[1] = test system: HCT-116 colon cancer xenografts; experiment: Tumor growth inhibition of HCT-116 colon cancer xenografts in tumor-bearing nude mice (tumor volume, TGI %, RTV, T/C %); type: in vivo, Balb/c Nude mice; conditions: for T/C % (relative tumor proliferation rate): dosage 400 mg/kg (G10-G16 study);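 as to T/C % (relative tumor proliferation rate): control C is the vehicle-treated model control group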
Description: 4.1 Tumor cells: colon cancer HCT-116 cells, purchased from the Institute of Cell Biology, Chinese Academy of Sciences. The cells were incubated by F-12 medium (containing 10% FBS) in carbon dioxide incubator at 37° C. and in saturated humidity, with 5% CO2 and 95% air in volume fraction. Before inoculation, the cells at logarithmic phase were taken, and digested with 0.25% trypsin, washed once with PBS and resuspended in PBS for counting. The cells were resuspended in serum-free medium and adjusted to about 3×10^7 cell/mL.
The grouping is as follows:
The formations of tumor at the inoculation site of each group of nude mice were observed. The diameter of tumor nodule (D) was measured three times a week with round hole ruler, and the volume of tumor nodule (V) was calculated according to the following formula: […].
Anti-tumor activity was evaluated by tumor growth inhibition rate TGI (%) and relative tumor proliferation rate T/C (%).
The relative tumor volume (RTV) was calculated as: RTV=Vt/V0, where V0 was the tumor volume when they were grouped and administered, and Vt was the tumor volume at the time of measurement.
The relative proliferation rate T/C (%) was calculated as: […].
TRTV: RTV of the treatment group; CRTV: RTV of the control group.
P<0.05 was considered as significant difference.

[2] = Description: To determine the growth inhibition effect and toxicity of the cytidine derivative samples of the present invention on the transplanted tumor of nude mice bearing colon cancer HCT-116.
The corresponding amount of test substance was taken in a 5 mL glass tube and dissolved in ethanol with a 5 mm magnetic stirrer for stirring. After dissolving completely, Cremophor EL was added with continuous stirring. The marked amount of saline was added and mixed evenly before use. The volume ratio of ethanol, Cremophor EL, and physiological saline was 5:5:90.
Varieties and lines; Balb/c Nude mice; level: SPF; sex: female.
4.2 Animal inoculation and grouping: Each nude mouse was inoculated subcutaneously with 0.1 mL of cell suspension (3×10^6 cell/mouse) at right side of hind limb in a sterile stale. When the tumor grew to about 60-150 mm^3, the nude mice with similar tumor volume and desirable shape were selected (it would be better to select single spherical shape, no irregular shape or multiple tumors grouped together) for grouping, 6 mice a group. The grouping is as follows:
The control group, namely the model control group, was injected with a mixture of ethanol, Cremophor EL, and saline (5:5:90).
Those mice were weighed three times a week.
All clinical symptoms of each animal should be recorded at the beginning of the test and during the test. The observations should be made at the same time each day.
An animal would be killed by CO2 when its weight loss was more than 20%, when it was about to die, or when its tumor volume exceeded 2800 mm^3. The tumor was separated and weighed, and the animal was autopsied and observed to evaluate and record whether there were pathological changes in the organs.
The data were expressed as Mean±SEM unless specially provided; Non-pairing T test was performed for the data between the two groups. P<0.05 was considered as significant difference.

[3] = Day 0, G10-G16 groups, single IP 400 mg/kg
[4] = Day 0, G10-G16 groups, single IP 400 mg/kg, Mean±SEM
[5] = Day 1, G10-G16 groups, single IP 400 mg/kg, Mean±SEM
[6] = Day 2, G10-G16 groups, single IP 400 mg/kg, Mean±SEM
[7] = Day 4, G10-G16 groups, single IP 400 mg/kg, Mean±SEM
[8] = Day 7, G10-G16 groups, single IP 400 mg/kg, Mean±SEM
[9] = Day 9, G10-G16 groups, single IP 400 mg/kg, Mean±SEM
[10] = Day 11, G10-G16 groups, single IP 400 mg/kg, Mean±SEM
[11] = Day 14, G10-G16 groups, single IP 400 mg/kg, Mean±SEM
[12] = Day 16, G10-G16 groups, single IP 400 mg/kg, Mean±SEM
[13] = Day 18, G10-G16 groups, single IP 400 mg/kg, Mean±SEM
[14] = Day 21, G10-G16 groups, single IP 400 mg/kg, Mean±SEM
[15] = Day 23, G10-G16 groups, single IP 400 mg/kg, Mean±SEM
[16] = Day 25, G10-G16 groups, single IP 400 mg/kg, Mean±SEM
[17] = Day 28, G10-G16 groups, single IP 400 mg/kg, Mean±SEM
[18] = Day 30, G10-G16 groups, single IP 400 mg/kg, Mean±SEM

O=C(COc1nc(Cl)c(Cl)cc1Cl)OC[C@H]1O[C@@H](n2cc(Br)c(NC(=O)OCc3ccccc3)nc2=O)C(F)(F)C1O (stereo partly shown) [Compound G10]
Day 0 (RTV) [1, 3]: 1.00
Tumor volume, Day 0 [1, 4]: 83.23 ± 12.39 mm^3
T/C % (relative tumor proliferation rate) ([1]; Day 0): 0.00%
Day 1 (TGI %) ([1]; Day 1, G10-G16 groups, single IP 400 mg/kg): 50.51%
Day 1 (RTV) [1, 5]: 1.06 ± 0.12
Tumor volume, Day 1 [1, 5]: 89.33 ± 14.35** mm^3
T/C % (relative tumor proliferation rate) ([1]; Day 1): 63.00%
Day 2 (TGI %) ([1]; Day 2, G10-G16 groups, single IP 400 mg/kg): 51.72%
Day 2 (RTV) [1, 6]: 1.27 ± 0.16
Tumor volume, Day 2 [1, 6]: 108.22 ± 18.22** mm^3
T/C % (relative tumor proliferation rate) ([1]; Day 2): 61.29%
Day 4 (TGI %) ([1]; Day 4, G10-G16 groups, single IP 400 mg/kg): 48.03%
Day 4 (RTV) [1, 7]: 1.83 ± 0.20
Tumor volume, Day 4 [1, 7]: 154.33 ± 27.49** mm^3
T/C % (relative tumor proliferation rate) ([1]; Day 4): 66.28%
Day 7 (TGI %) ([1]; Day 7, G10-G16 groups, single IP 400 mg/kg): 46.09%
Day 7 (RTV) [1, 8]: 2.82 ± 0.25
Tumor volume, Day 7 [1, 8]: 233.13 ± 37.06** mm^3
T/C % (relative tumor proliferation rate) ([1]; Day 7): 69.09%
Day 9 (TGI %) ([1]; Day 9, G10-G16 groups, single IP 400 mg/kg): 33.35%
Day 9 (RTV) [1, 9]: 4.84 ± 0.55
Tumor volume, Day 9 [1, 9]: 393.47 ± 68.53 mm^3
T/C % (relative tumor proliferation rate) ([1]; Day 9): 86.30%
Day 11 (TGI %) ([1]; Day 11, G10-G16 groups, single IP 400 mg/kg): 38.55%
Day 11 (RTV) [1, 10]: 7.60 ± 0.85
Tumor volume, Day 11 [1, 10]: 599.83 ± 84* mm^3
T/C % (relative tumor proliferation rate) ([1]; Day 11): 82.36%
Day 14 (TGI %) ([1]; Day 14, G10-G16 groups, single IP 400 mg/kg): 30.82%
Day 14 (RTV) [1, 11]: 13.37 ± 2.23
Tumor volume, Day 14 [1, 11]: 996.32 ± 91.77* mm^3
T/C % (relative tumor proliferation rate) ([1]; Day 14): 96.62%
Day 16 (TGI %) ([1]; Day 16, G10-G16 groups, single IP 400 mg/kg): 24.07%
Day 16 (RTV) [1, 12]: 18.63 ± 3.27
Tumor volume, Day 16 [1, 12]: 1375.20 ± 109.23* mm^3
T/C % (relative tumor proliferation rate) ([1]; Day 16): 107.93%
Day 18 (TGI %) ([1]; Day 18, G10-G16 groups, single IP 400 mg/kg): 18.11%
Day 18 (RTV) [1, 13]: 22.45 ± 4.24
Tumor volume, Day 18 [1, 13]: 1636.39 ± 114.98 mm^3
T/C % (relative tumor proliferation rate) ([1]; Day 18): 117.59%
Day 21 (TGI %) ([1]; Day 21, G10-G16 groups, single IP 400 mg/kg): 14.51%
Day 21 (RTV) [1, 14]: 29.09 ± 6.00
Tumor volume, Day 21 [1, 14]: 2090.18 ± 124.45 mm^3
T/C % (relative tumor proliferation rate) ([1]; Day 21): 124.28%
Day 23 (TGI %) ([1]; Day 23, G10-G16 groups, single IP 400 mg/kg): 10.21%
Day 23 (RTV) [1, 15]: 29.56 ± 5.99
Tumor volume, Day 23 [1, 15]: 2120.63 ± 111.71 mm^3
T/C % (relative tumor proliferation rate) ([1]; Day 23): 149.49%
Day 25 (TGI %) ([1]; Day 25, G10-G16 groups, single IP 400 mg/kg): 11.18%
Day 25 (RTV) [1, 16]: 31.95 ± 6.61
Tumor volume, Day 25 [1, 16]: 2293.73 ± 132.31 mm^3
T/C % (relative tumor proliferation rate) ([1]; Day 25): 147.80%
Day 28 (TGI %) ([1]; Day 28, G10-G16 groups, single IP 400 mg/kg): 10.61%
Day 28 (RTV) [1, 17]: 35.86 ± 7.35
Tumor volume, Day 28 [1, 17]: 2404.00 ± 127.93 mm^3
T/C % (relative tumor proliferation rate) ([1]; Day 28): 169.72%
Day 30 (TGI %) ([1]; Day 30, G10-G16 groups, single IP 400 mg/kg): 10.17%
Day 30 (RTV) [1, 18]: 40.27 ± 10.35
Tumor volume, Day 30 [1, 18]: 2520.69 ± 108.41 mm^3
T/C % (relative tumor proliferation rate) ([1]; Day 30): 162.31%
Weight change rate, Day 0 [2, 3]: 0.00%
Weight of mice, Day 0 [2, 4]: 19.90 ± 0.17 g
Weight change rate, Day 1 [2, 5]: −1.76 ± 0.49%
Weight of mice, Day 1 [2, 5]: 19.55 ± 0.21 g
Weight change rate, Day 2 [2, 6]: −0.85 ± 0.43%
Weight of mice, Day 2 [2, 6]: 19.73 ± 0.25 g
Weight change rate, Day 4 [2, 7]: 1.94 ± 0.91 %
Weight of mice, Day 4 [2, 7]: 20.28 ± 0.19 g
Weight change rate, Day 7 [2, 8]: 0.61 ± 0.70 %
Weight of mice, Day 7 [2, 8]: 20.02 ± 0.09 g
Weight change rate, Day 9 [2, 9]: 3.04 ± 1.24 %
Weight of mice, Day 9 [2, 9]: 20.50 ± 0.24 g
Weight change rate, Day 11 [2, 10]: 2.77 ± 1.51%
Weight of mice, Day 11 [2, 10]: 20.45 ± 0.32 g
Weight change rate, Day 14 [2, 11]: −1.53 ± 2.52%
Weight of mice, Day 14 [2, 11]: 19.60 ± 0.57 g
Weight change rate, Day 16 [2, 12]: −2.19 ± 3.22%
Weight of mice, Day 16 [2, 12]: 19.47 ± 0.68 g
Weight change rate, Day 18 [2, 13]: −1.80 ± 3.13%
Weight of mice, Day 18 [2, 13]: 19.55 ± 0.70 g
Weight change rate, Day 21 [2, 14]: −2.23 ± 3.14%
Weight of mice, Day 21 [2, 14]: 19.47 ± 0.72 g
Day 22 Mortality ([2]; Day 22, single IP dose (mg/kg)): 0%
Weight change rate, Day 23 [2, 15]: −2.41 ± 3.42%
Weight of mice, Day 23 [2, 15]: 19.43 ± 0.78 g
Weight change rate, Day 25 [2, 16]: −1.80 ± 3.06%
Weight of mice, Day 25 [2, 16]: 19.55 ± 0.69 g
Weight change rate, Day 28 [2, 17]: −1.77 ± 2.66%
Weight of mice, Day 28 [2, 17]: 19.54 ± 0.67 g
Weight change rate, Day 30 [2, 18]: −1.95 ± 3.04%
Weight of mice, Day 30 [2, 18]: 19.55 ± 0.79 g
clinical symptoms ([2]; after single IP dose, compared with model control group): no significant differences in clinical symptoms
